Source: ChEMBL document CHEMBL1156829 (Proc Natl Acad Sci U S A, 2008)

What was measured:
Plasmodium falciparum [1] = experiment: NOVARTIS: Inhibition of Plasmodium falciparum 3D7 (drug-susceptible) proliferation in erythrocyte-based infection assay; assay type: functional, organism-based; conditions: Plasmodium falciparum, 3D7
Plasmodium falciparum [2] = experiment: NOVARTIS: Inhibition of Plasmodium falciparum W2 (drug-resistant) proliferation in erythrocyte-based infection assay; assay type: functional, organism-based; conditions: Plasmodium falciparum, W2; read-out: EC50
[3] = NOVARTIS: Cytotoxicity against human hepatocellular carcinoma cell line (Huh7); assay type: toxicity, cell-based, Huh-7; conditions: Huh7 cells (hepatocellular carcinoma cell line)

| Structure (SMILES) | EC50 (Plasmodium falciparum [1]) | EC50 (Plasmodium falciparum [2]) | CC50 [3] |
| --- | --- | --- | --- |
| CCC1=NN2C(=N)/C(=C/c3ccc(OCCOc4ccc(Br)cc4)c(OC)c3)C(=O)N=C2S1 | > 1.25 µM | > 0.675 µM | > 10 µM |
| Fc1cccc2sc(Nc3nc(-c4ccccn4)cs3)nc12 | 0.321 µM | 0.0958 µM | 24.7 µM |
| COc1cc(/C=C2\SC(c3ccc(C)cc3)=NC2=O)cc(OC)c1OC | > 1.25 µM | > 1.22 µM | > 10 µM |
| Cc1ccc(C)c(NC2=C(c3ccc(C(F)(F)F)cc3)C(=O)c3ccccc32)c1 | 1.85 µM | 4.22 µM | > 100 µM |
| CCOC(=O)NN=C1c2ccccc2-c2nc3nonc3nc21 | 1.45 µM | 1.18 µM | > 10 µM |
| O=C(C1CCN(C(c2ccc(F)cc2)c2ccc(F)cc2)CC1)N1CCCC1 | > 0.586 µM | 0.447 µM | > 10 µM |
| CCCCOC(=O)c1ccc(NC2=C(c3ccc(OC)cc3)C(=O)c3ccccc32)cc1 | 1.21 µM | 0.758 µM | > 100 µM |
| COC(CNC(=O)c1c[nH]c2ccc(S(=O)(=O)N3CCN(C)CC3)cc2c1=O)OC | > 12.5 µM | 2.86 µM | > 100 µM |
| CCCCCCn1c2c(c(=N)c3ccccc31)CCC2 | 0.681 µM | > 1.12 µM | > 10 µM |
| COCCOC(=O)C1=C(C)NC2=C(C(=O)CC(c3ccc(OC)c(OC)c3)C2)C1c1cccc(Cl)c1Cl (configuration not stated) | 0.178 µM | 0.058 µM | > 100 µM |
| COc1cccc(NC(=O)C2C3C=CC4(O3)C2C(=O)N(Cc2ccc3c(c2)OCO3)C4C(=O)NC2CCCCC2C)c1 (configuration not stated) | > 12.5 µM | > 5.31 µM | > 100 µM |
| CCCOC(=O)C1=C(C)NC2=C(C(=O)CC(c3ccc(OC)c(OC)c3)C2)C1c1cccc([N+](=O)[O-])c1 (configuration not stated) | 0.145 µM | 0.0364 µM | > 62.4 µM |
| CC(Cl)=CCc1c(C)nc2c(ccc3ccccc32)c1O | 0.23 µM | 0.299 µM | > 100 µM |
| CC(C)CN(CC(=O)Nc1cc(C(C)(C)C)nn1-c1ccccc1)C(=O)Cc1cccs1 | 1.3 µM | 0.781 µM | > 10 µM |
| COC(=O)c1c(OCc2ccc(F)cc2)cc(=O)n2c1CCN(Cc1ccccc1)CC2 | 3.94 µM | 0.538 µM | > 100 µM |
| COc1ccc(CN2CCC(C(=O)Nc3ccc(Oc4cccnc4)cc3)CC2)cc1 | 2.23 µM | 0.64 µM | 59.4 µM |
| COc1ccc(-n2nc3c(c2NC(=O)C=Cc2cc(OC)c(OC)c(OC)c2)CSC3)cc1 | 0.392 µM | 0.294 µM | > 100 µM |
| Cc1ccc(C(=O)NCCCCNc2ccnc3cc(Cl)ccc23)cc1[N+](=O)[O-] | 0.223 µM | 0.308 µM | > 10 µM |
| CC1(C)Oc2ccc3ccc(=O)oc3c2CC1=NNC(N)=S | > 12.5 µM | 4.19 µM | > 100 µM |
| CCOc1ccc(C=NNC(=O)CCn2nnc3ccccc32)cc1 | > 1.04 µM | > 1.25 µM | > 13.6 µM |
| Oc1ccc(Nc2nc(NCc3ccco3)c3ccccc3n2)cc1 | 0.0861 µM | 1.11 µM | 19.7 µM |
| O=C(Cc1ccc(Cl)cc1)NNS(=O)(=O)c1ccc([N+](=O)[O-])cc1 | > 0.893 µM | > 1.37 µM | > 10 µM |
| CCCCN1Cc2ccc(C(=O)NC(C)C)cc2N=C1c1ccc(F)cc1 | 0.722 µM | 0.325 µM | > 10 µM |

| Structure (SMILES) | EC50 (Plasmodium falciparum [1]) | EC50 (Plasmodium falciparum [2]) | CC50 [3] |
| --- | --- | --- | --- |
| CCOc1ccc(-n2nc(C(=O)NCCCN(C)Cc3ccccc3)c3ccccc3c2=O)cc1 | > 11.2 µM | 10.3 µM | > 100 µM |
| CCOc1ccc(CCN2C(=S)N(c3cccc(C(F)(F)F)c3)C(=O)C2CC(=O)Nc2ccc(C(=O)OC)cc2)cc1OCC (configuration not stated) | 1.74 µM | 0.58 µM | 28.5 µM |
| COc1cc(C(Nc2ccccn2)c2ccc3cccnc3c2O)cc(Br)c1OC (configuration not stated) | 0.368 µM | 0.219 µM | > 35 µM |
| COc1ccc(C(=O)Nc2ccc3nsnc3c2)cc1OC | > 1.25 µM | > 1.25 µM | > 10 µM |
| CCOC(=O)c1nnn(-c2nonc2N)c1-c1ccc(OC)c(OC)c1 | 0.513 µM | 0.45 µM | > 100 µM |
| CCC1(C)CC(CCNCc2ccccc2O)(c2ccc(OC)cc2)CCO1 (configuration not stated) | 0.455 µM | 0.0765 µM | 21.4 µM |
| CCOC(=O)c1cccc(N2C(N)=NC(N)=NC2(C)C)c1 | 0.148 µM | > 1.25 µM | > 10 µM |
| CC(C)CN(CC(=O)Nc1cc(C(C)(C)C)nn1-c1ccccc1)C(=O)c1cc(Cl)cc(Cl)c1 | 1.23 µM | < 0.0167 µM | > 10 µM |
| CCOC(=O)c1cccc(OC(=O)c2ccccc2)c1 | > 7.67 µM | 2.12 µM | > 100 µM |
| Cc1cc(C)cc(NC2=C(N)C(=O)c3ccccc3C2=O)c1 | 0.969 µM | 0.551 µM | > 100 µM |
| Fc1cccc(Nc2nc(NCC3CCCO3)c3ccccc3n2)c1 (configuration not stated) | 0.142 µM | 0.203 µM | 9.58 µM |
| CCOc1ccc2c(c1)sc(=NC(=O)Nc1ccc(OC)cc1)n2C | > 8.3 µM | 0.997 µM | 17.8 µM |
| CSCCN1CCc2ccc3[nH]cc(-c4cccc(Cl)c4)c3c2C1 | 0.108 µM | 0.224 µM | > 10 µM |
| O=C1c2ccc3c4c(ccc(c24)C(=O)N1CCCCO)C(=O)N(CCCCO)C3=O | 0.354 µM | 0.0774 µM | 4.38 µM |
| COc1cc(/C=C2\CC/C(=C\c3cc(OC)c(OC)c(OC)c3)C2=O)cc(OC)c1OC | 0.458 µM | 0.457 µM | 0.873 µM |
| COC(=O)c1cn([C@H]2C[C@@H](C(=O)NCc3ccc(OC)cc3)N(Cc3ccsc3)C2)nn1 | > 1.71 µM | 0.2 µM | > 7.38 µM |
| CCCCSCC(O)CN1CCCCC1 (configuration not stated) | 5.28 µM | 0.534 µM | > 100 µM |
| CCCCCC(=O)N(CCN(C)C)C(CC)c1nc2ccccc2c(=O)n1-c1ccc(F)cc1 (configuration not stated) | > 1.25 µM | > 0.628 µM | > 10 µM |
| CCOC(=O)c1cnc2ccc(OC)cc2c1NCc1cccs1 | 5.9 µM | 3.72 µM | > 100 µM |
| Cc1cc(Cl)ccc1NC(=O)c1ccccc1[N+](=O)[O-] | 2.07 µM | 0.93 µM | > 100 µM |
| COc1ccccc1C(=O)NN=C(C)c1cccnc1 | > 1.25 µM | > 0.602 µM | > 10 µM |
| Cc1cc(Nc2cccc([N+](=O)[O-])c2)nc2cc(O)ccc12 | 0.672 µM | 0.0751 µM | 36.3 µM |
| COc1cc2c(cc1/C=C(/C#N)c1cccc(C)c1)OCO2 | > 1.06 µM | > 1.25 µM | > 10 µM |

| Structure (SMILES) | EC50 (Plasmodium falciparum [1]) | EC50 (Plasmodium falciparum [2]) | CC50 [3] |
| --- | --- | --- | --- |
| Oc1ccccc1C=Nc1ccccc1[Te]c1ccccc1N=Cc1ccccc1O | 0.00349 µM | 0.00314 µM | 0.552 µM |
| CCOc1ccc(C2C(=O)N(C3CCCCC3)CC(=O)N2Cc2ccc(F)cc2)cc1OC (configuration not stated) | 4.56 µM | 4.15 µM | > 100 µM |
| CN1CCN(Nc2ccnc3cc4ccccc4cc23)CC1 | 0.104 µM | 0.246 µM | > 10 µM |
| COc1ccc(NC(=O)C2=C(C)NC(=S)NC2c2ccc(O)cc2)cc1 (configuration not stated) | 1.42 µM | 0.342 µM | > 10 µM |
| O=C(Nc1ccc(-c2noc(CCc3ccccc3)n2)cc1)c1cccs1 | 0.903 µM | 0.554 µM | 15.7 µM |
| CCOC(=O)c1cnc2c3c(ccc2c1O)CCCC3 | 0.133 µM | 0.137 µM | > 100 µM |
| Cc1ccc(NC(=O)c2ccc(NCCCN3CCCCCC3)c([N+](=O)[O-])c2)cc1F | 0.0941 µM | 0.371 µM | 16.9 µM |
| Oc1nc(-c2ccccn2)nc(C(F)(F)F)c1Br | 0.49 µM | < 0.0256 µM | > 8.27 µM |
| CN(C)CCCNC(=O)c1ccc(-c2cncc(-c3cccc(O)c3)n2)cc1 | 0.923 µM | > 1.25 µM | > 10 µM |
| COc1ccc(CN(Cc2cc3cc(OC)c(OC)cc3[nH]c2=O)C(=S)NCCc2ccc(OC)c(OC)c2)cc1 | 5.58 µM | 1.04 µM | 35.7 µM |
| CCOC(=O)c1c(NC(=O)CSc2nnc(CNC(=O)c3cccs3)n2-c2cccc(Cl)c2)sc2c1CCCC2 | > 1.14 µM | > 1.25 µM | > 10 µM |
| CCN(Cc1ccccc1)Cc1c(O)ccc2oc(C)c(C(=O)Nc3ccc(C)cc3C)c12 | 3.49 µM | 2.1 µM | 42.3 µM |
| Cc1n(N)c2ccccc2[n+]1CC(=O)c1ccccc1 | 2.9 µM | 1.75 µM | > 100 µM |
| C(=Nc1cnc2ccccc2c1)c1c2n(c3ccccc13)CCCN2 | 0.663 µM | 1.51 µM | > 100 µM |
| CC(C)(C)c1ccc2c(c1)CN(C1CCCCC1)CO2 | 0.099 µM | 0.0369 µM | 20.8 µM |
| O=C1c2ccccc2-c2nnc(-c3ccc(Br)cc3)cc21 | > 2.5 µM | 1.89 µM | > 100 µM |
| CCc1ccccc1N=C1c2c(cccc2[N+](=O)[O-])C(=O)C1C(C)=O (configuration not stated) | 0.0113 µM | 0.0154 µM | > 100 µM |
| COc1ccccc1-n1c(C(C)N2CCN(C(=O)c3cc([N+](=O)[O-])cc([N+](=O)[O-])c3)C(C)C2)nc2ccccc2c1=O (configuration not stated) | > 0.603 µM | 0.0796 µM | > 10 µM |
| COc1ccc(C(=O)ON=C(N)Cc2ccc(Cl)cc2Cl)cc1[N+](=O)[O-] | 4.98 µM | 0.675 µM | > 100 µM |
| COc1cccc(OCC(=O)NN=C(C)CC(=O)NCc2ccco2)c1 | > 12.5 µM | 0.901 µM | > 100 µM |
| Cc1ccc(NC(=O)c2cc(C(=O)c3cc(Cl)ccc3O)cn(-c3ccc(C)c(C)c3)c2=O)cc1C | 8.07 µM | 6.9 µM | > 100 µM |
| Cc1cccc(C)c1NC(=O)N1CCN(C2CCCCC2)CC1 | > 12.5 µM | > 6.56 µM | > 100 µM |
| COC(=O)[C@@H]1C[C@@H](NC(=O)c2ccc(C)cc2)CN1Cc1ccc(OC)c(C)c1OC | 0.565 µM | 0.137 µM | > 10 µM |
